Data taken from PubChem BioAssay AID1963829 (Molecular Pharmacology Branch, DTP, NCI, 2024).

System: 935938-334-R-J1-PDC complex spheroid viability
Assay: Anticancer human tumor 935938-334-R-J1-PDC patient-derived small intestine adenocarcinoma cell line growth inhibition [POLQ]
Details: for IC50: curve of first compound; for viability, T/C: stronger effect = lower value
Outline: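 Patient-derived tumour cells were co-cultured with HUVEC and mesenchymal stem cells as multicellular spheroids at 37 °C. They were treated with POLQ inhibitors (novobiocin, ART-558, RP6685) alone or combined with other agents. Top concentrations were at or near clinical Cmax (otherwise 10 microM; SN-38 at 1 microM), decreasing in half-log steps.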

[1] = second compound 0.0316 µM, first compound 0.0316 µM
[2] = second compound 0.0316 µM, first compound 0.1 µM
[3] = second compound 0.0316 µM, first compound 0.316 µM
[4] = second compound 0.0316 µM, first compound 1 µM
[5] = second compound 0.0316 µM, first compound 3.16 µM
[6] = second compound 0.0316 µM, first compound 10 µM
[7] = second compound 0.1 µM, first compound 0.0316 µM
[8] = second compound 0.1 µM, first compound 0.1 µM
[9] = second compound 0.1 µM, first compound 0.316 µM
[10] = second compound 0.1 µM, first compound 1 µM
[11] = second compound 0.1 µM, first compound 3.16 µM
[12] = second compound 0.1 µM, first compound 10 µM
[13] = second compound 0.316 µM, first compound 0.0316 µM
[14] = second compound 0.316 µM, first compound 0.1 µM
[15] = second compound 0.316 µM, first compound 0.316 µM
[16] = second compound 0.316 µM, first compound 1 µM
[17] = second compound 0.316 µM, first compound 3.16 µM
[18] = second compound 0.316 µM, first compound 10 µM
[19] = second compound 1 µM, first compound 0.0316 µM
[20] = second compound 1 µM, first compound 0.1 µM
[21] = second compound 1 µM, first compound 0.316 µM
[22] = second compound 1 µM, first compound 1 µM
[23] = second compound 1 µM, first compound 3.16 µM
[24] = second compound 1 µM, first compound 10 µM
[25] = second compound 3.16 µM, first compound 0.0316 µM
[26] = second compound 3.16 µM, first compound 0.1 µM
[27] = second compound 3.16 µM, first compound 0.316 µM
[28] = second compound 3.16 µM, first compound 1 µM
[29] = second compound 3.16 µM, first compound 3.16 µM
[30] = second compound 3.16 µM, first compound 10 µM
[31] = second compound 10 µM, first compound 0.0316 µM
[32] = second compound 10 µM, first compound 0.1 µM
[33] = second compound 10 µM, first compound 0.316 µM
[34] = second compound 10 µM, first compound 1 µM
[35] = second compound 10 µM, first compound 3.16 µM
[36] = second compound 10 µM, first compound 10 µM
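Also: spheroids exposed to drugs for seven days before viability read.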
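For viability, T/C in this document: 100% = DMSO vehicle control wells.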

SMILES: O=C(c1cc(Cc2n[nH]c(=O)c3ccccc23)ccc1F)N1CCN(C(=O)C2CC2)CC1 + Nc1ccc(C#CCN(C(=O)Cc2ncc(C(F)(F)F)cc2C(F)(F)F)c2ccc(F)cc2)nn1
- IC50 (second compound 0.0316 µM): > 10 µM
- IC50 (second compound 0.1 µM): > 10 µM
- IC50 (second compound 0.316 µM): > 10 µM
- IC50 (second compound 1 µM): > 10 µM
- IC50 (second compound 3.16 µM): > 10 µM
- IC50 (second compound 10 µM): > 10 µM
- viability, T/C [1]: 87.6%
- viability, T/C [2]: 89.3%
- viability, T/C [3]: 108%
- viability, T/C [4]: 89.5%
- viability, T/C [5]: 75.2%
- viability, T/C [6]: 76.3%
- viability, T/C [7]: 93.7%
- viability, T/C [8]: 81%
- viability, T/C [9]: 105%
- viability, T/C [10]: 73.1%
- viability, T/C [11]: 81%
- viability, T/C [12]: 60%
- viability, T/C [13]: 84.4%
- viability, T/C [14]: 85%
- viability, T/C [15]: 116%
- viability, T/C [16]: 69.3%
- viability, T/C [17]: 74.3%
- viability, T/C [18]: 53.3%
- viability, T/C [19]: 99.3%
- viability, T/C [20]: 99.8%
- viability, T/C [21]: 107%
- viability, T/C [22]: 98.6%
- viability, T/C [23]: 111%
- viability, T/C [24]: 78.7%
- viability, T/C [25]: 92%
- viability, T/C [26]: 93.5%
- viability, T/C [27]: 95%
- viability, T/C [28]: 94.8%
- viability, T/C [29]: 94.9%
- viability, T/C [30]: 69.2%
- viability, T/C [31]: 84.4%
- viability, T/C [32]: 94.9%
- viability, T/C [33]: 102%
- viability, T/C [34]: 98.2%
- viability, T/C [35]: 81%
- viability, T/C [36]: 85.9%

SMILES: COc1cccc2c1C(=O)c1c(O)c3c(c(O)c1C2=O)CC(O)(C(=O)CO)CC3OC1CC(N)C(O)C(C)O1 (stereo unspecified) + COC1C(OC(N)=O)C(O)C(Oc2ccc3c(O)c(NC(=O)c4ccc(O)c(CC=C(C)C)c4)c(=O)oc3c2C)OC1(C)C
- IC50 (second compound 0.0316 µM): 0.217 µM
- IC50 (second compound 0.1 µM): 0.221 µM
- IC50 (second compound 0.316 µM): 0.19 µM
- IC50 (second compound 1 µM): 0.228 µM
- IC50 (second compound 3.16 µM): 0.211 µM
- IC50 (second compound 10 µM): 0.216 µM
- viability, T/C [1]: 84.4%
- viability, T/C [2]: 93.7%
- viability, T/C [3]: 30.8%
- viability, T/C [4]: 19.2%
- viability, T/C [5]: 5.61%
- viability, T/C [6]: 7.78%
- viability, T/C [7]: 75.3%
- viability, T/C [8]: 98.3%
- viability, T/C [9]: 33.4%
- viability, T/C [10]: 20.2%
- viability, T/C [11]: 4.7%
- viability, T/C [12]: 4.37%
- viability, T/C [13]: 67.5%
- viability, T/C [14]: 93.3%
- viability, T/C [15]: 25.9%
- viability, T/C [16]: 20.4%
- viability, T/C [17]: 6.24%
- viability, T/C [18]: 5.64%
- viability, T/C [19]: 66.8%
- viability, T/C [20]: 103%
- viability, T/C [21]: 36%
- viability, T/C [22]: 23.7%
- viability, T/C [23]: 6.64%
- viability, T/C [24]: 5.44%
- viability, T/C [25]: 52.7%
- viability, T/C [26]: 113%
- viability, T/C [27]: 32.1%
- viability, T/C [28]: 22.1%
- viability, T/C [29]: 6.52%
- viability, T/C [30]: 3.3%
- viability, T/C [31]: 61.5%
- viability, T/C [32]: 122%
- viability, T/C [33]: 29%
- viability, T/C [34]: 21.3%
- viability, T/C [35]: 5.32%
- viability, T/C [36]: 5.87%

SMILES: COc1cc2cc(C(=O)CCC(=O)O)sc2cc1OC + COC1C(OC(N)=O)C(O)C(Oc2ccc3c(O)c(NC(=O)c4ccc(O)c(CC=C(C)C)c4)c(=O)oc3c2C)OC1(C)C
- IC50 (second compound 0.0316 µM): > 10 µM
- IC50 (second compound 0.1 µM): > 10 µM
- IC50 (second compound 0.316 µM): > 10 µM
- IC50 (second compound 1 µM): > 10 µM
- IC50 (second compound 3.16 µM): > 10 µM
- IC50 (second compound 10 µM): > 10 µM
- viability, T/C [1]: 101%
- viability, T/C [2]: 98.3%
- viability, T/C [3]: 113%
- viability, T/C [4]: 83.7%
- viability, T/C [5]: 108%
- viability, T/C [6]: 110%
- viability, T/C [7]: 103%
- viability, T/C [8]: 118%
- viability, T/C [9]: 97.9%
- viability, T/C [10]: 110%
- viability, T/C [11]: 92.4%
- viability, T/C [12]: 135%
- viability, T/C [13]: 128%
- viability, T/C [14]: 131%
- viability, T/C [15]: 109%
- viability, T/C [16]: 98%
- viability, T/C [17]: 112%
- viability, T/C [18]: 105%
- viability, T/C [19]: 99.2%
- viability, T/C [20]: 98.3%
- viability, T/C [21]: 90.8%
- viability, T/C [22]: 112%
- viability, T/C [23]: 108%
- viability, T/C [24]: 83.1%
- viability, T/C [25]: 106%
- viability, T/C [26]: 96.1%
- viability, T/C [27]: 96.9%
- viability, T/C [28]: 101%
- viability, T/C [29]: 109%
- viability, T/C [30]: 95.4%
- viability, T/C [31]: 171%
- viability, T/C [32]: 118%
- viability, T/C [33]: 98%
- viability, T/C [34]: 101%
- viability, T/C [35]: 80.8%
- viability, T/C [36]: 109%
